Laboratory results as given in paper PMC6368574, “Probing the Inhibition of Microtubule Affinity Regulating Kinase 4 by N-Substituted Acridones” (Scientific Reports, 2019).
Read-outs that look alike come from different tables or passages of the source.

Columns and labels:
recombinant MARK4 [1] = target: T1, recombinant MARK4 (Homo sapiens, UniProt Q96L34); assay: Fluorescence binding (quenching, modified Stern-Volmer); settings: Table S3; fluorescence binding; read-out: Binding affinity (Ka) (converted)
T1 construct: made in house; host or cells: bacterial cells (Luria-Bertani broth, IPTG induction)
T1 sequence (Q96L34 1-752): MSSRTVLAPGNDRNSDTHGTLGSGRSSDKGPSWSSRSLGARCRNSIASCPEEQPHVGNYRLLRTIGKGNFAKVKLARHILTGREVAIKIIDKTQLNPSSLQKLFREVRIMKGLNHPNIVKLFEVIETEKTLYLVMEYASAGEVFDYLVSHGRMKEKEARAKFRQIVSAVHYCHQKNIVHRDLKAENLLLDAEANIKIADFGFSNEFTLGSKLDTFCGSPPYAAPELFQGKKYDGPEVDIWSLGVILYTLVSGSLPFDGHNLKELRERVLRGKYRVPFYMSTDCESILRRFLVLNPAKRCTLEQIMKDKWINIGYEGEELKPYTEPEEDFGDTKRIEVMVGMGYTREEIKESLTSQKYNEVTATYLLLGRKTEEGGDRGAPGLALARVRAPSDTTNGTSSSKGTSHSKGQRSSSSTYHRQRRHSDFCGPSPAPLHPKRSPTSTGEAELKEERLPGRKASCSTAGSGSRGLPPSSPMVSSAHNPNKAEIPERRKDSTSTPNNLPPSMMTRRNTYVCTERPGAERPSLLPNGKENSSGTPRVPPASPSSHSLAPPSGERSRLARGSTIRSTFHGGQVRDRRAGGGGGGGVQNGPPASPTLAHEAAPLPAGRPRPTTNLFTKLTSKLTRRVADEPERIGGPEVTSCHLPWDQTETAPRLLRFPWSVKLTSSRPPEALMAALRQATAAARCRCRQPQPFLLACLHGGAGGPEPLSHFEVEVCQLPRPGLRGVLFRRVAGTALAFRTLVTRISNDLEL
Protocol: To determine the binding affinities of the synthesized acridones with MARK4, we used fluorescence emission spectra measurements. Protein sample was excited at 280 nm and emission was measured in 300–400 nm range with increasing concentrations of each acridone derivative (0–100 µM). A significant decrease in fluorescence intensity of MARK4 with increasing concentrations of each compound was fitted in the modified Stern-Volmer equation to calculate the binding constant, Ka and the number of binding sites per protein molecule (n). All the synthesized acridones have been screened (Supplementary Fig. S6, S7 and Table S3) and those with the highest affinity have been selected (compounds 5, 7b, 7d, 7f and 7h) for further evaluation (Fig. 3). The binding constants of compound 5, 7b, 7d, 7f and 7h were estimated as 6.3 × 10^4 M^−1, 1.0 × 10^6 M^−1, 1.0 × 10^6 M^−1, 1.9 × 10^6 M^−1, and 3.1 × 10^5 M^−1, respectively (Fig. 3).
Figure 3 Fluorescence binding studies of compound 5, 7b, 7d, 7f and 7h with MARK4. (A) Fluorescence emission spectra of MARK4 (10 µM) with increasing concentrations of the respective compound (5, 7b, 7d, 7f and 7h). Excitation wavelength was fixed at 280 nm and emission was recorded in 300–400 nm range. (B) Modified Stern-Volmer plot obtained from fluorescence quenching of MARK4 by compound 5, 7b, 7d, 7f and 7h, respectively. It was used to calculate binding affinity (Ka) and number of binding sites (n).
Binding affinities of synthesized acridone derivatives with recombinant MARK4 was carried out by observing the fluorescence intensity change of emission spectrum of MARK4 by following our previously published protocol[44],[45]. Each titration of protein was performed in triplicates and the average was taken for analysis. A significant decreased in fluorescence intensity of protein with increase in the concentration of acridone derivatives were used as the criteria for deducing the binding constant (Ka) as well as number of binding sites (n) present on the protein molecule using the modified Stern-Volmer equation[46]:1 log(Fo−F)/F=logKa+nlog[L] where, Fo = Fluorescence intensity of native protein, F = Fluorescence intensity of protein in the presence of ligand, Ka = Binding constant, n = number of binding sites, L = concentration of ligand. The values for Ka and n were derived from the intercept and slope, respectively.

recombinant MARK4 [2] = target: T1, recombinant MARK4; assay: ATPase enzyme inhibition assay (Malachite Green); format: biochemical
Protocol: To evaluate the inhibition activity of synthesized acridone derivatives against recombinant MARK4, ATPase enzyme inhibition assay was performed (Table S3). […] Our studies were initiated by replacing the ester group of 5 with sterically and electronically diverse amines affording the corresponding amides 7a–j, in order to establish favorable interactions with residues Ala135, Val70, Asp196 and/or Glu182. […] In this case, the docking studies indicate a better fit of 7h compared with 7g in the active site of MARK4 with a binding energy of −9.5 kcal/mol and a stronger predicted hydrogen bond with Ala135 (3.06 Å for 7h, 3.19 Å for 7g).
Enzyme activity of MARK4 was evaluated with the help of standard Malachite Green (Biomol Green reagent, Enzo Life Sciences) microtitre-plate assay as described earlier. Estimated amount of MARK4 (200 ng) and 20 µM ATP as a substrate were incubated for 10–15 min at 25 °C with increasing concentrations (0–20 µM) of synthesized acridone derivatives, in 20 mM Tris buffer, pH 8.0. Reaction was terminated by the adding 100 µl of Biomol Green reagent and absorbance of final reaction products was recorded at 620 nm in a multiplate ELSIA reader (BioRad). In order to quantify the hydrolyzed phosphate, inorganic phosphate standard curve were prepared from the phosphate standard solutions as supplied by the manufacturer (Biomol Green reagent, Enzo Life Sciences). All data points represent triplicate measurements from at least three independent experiments.

HepG2 cells = assay: MTT cell viability assay, HepG2; format: cell-based; settings: Homo sapiens, Table S2
Protocol: (§1) Initially, all synthesized acridone derivatives were evaluated for their cytotoxicity potential on MCF-7, HepG2 and HEK293 cell lines by MTT assay. These synthesized acridone derivatives were screened in the concentration range of 0–200 µM, for 24 and 48 h. […] It was also interesting that in the studied […] concentration range these compounds don’t show considerable cytotoxicity towards HEK293 cell lines. […] Thus, compounds 5, 7b, 7d, 7f and 7h were taken for further cell based studies such as apoptosis and reactive oxygen species (ROS) production.
(§2) To study the effect of synthesized acridone derivatives on cell viability and proliferation, a standard MTT method was carried out. Cells were plated (8000–9000/well) in a 96-well plate and incubated overnight. On the next day, cells were treated with increasing concentrations (0.1–80 μM) of synthesized acridone derivatives in a final volume of 200 µl for 48 h at 37 °C in a humidified chamber. At the end of treatment time point, 20 µl of MTT solution (from 5 mg/ml stock solution in phosphate buffer saline, pH 7.4) was added to each well and incubated further for 4–5 h at 37 °C in the CO2 incubator. After stipulated time the supernatant was aspirated and the colored formazan crystal produced as a result of MTT reduction was dissolved in 100 µl of DMSO. The absorbance (A) of colored product was then measured at 570 nm on a multiplate ELISA reader (BioRad). The percentage of viable cells was calculated and used to estimate the IC50 (50% inhibitory concentration) values for each acridone derivative. For cell proliferation studies paclitaxel has been taken as positive control.

HEK293 cells = assay: MTT cell viability assay, HEK293; format: cell-based; settings: Homo sapiens, Table S2
Protocol: as §1, §2

MCF-7 cells = assay: MTT cell viability assay, MCF-7; format: cell-based; settings: Homo sapiens, MCF7; Table S2; MTT; read-out: IC50 (µM) MCF-7
Protocol: as §1, §2

MARK2 = system: MARK2; parameters: method as in PMID 21984823; settings: cited from earlier work
[3] = ATPase inhibition, 20 µM ATP, read-out: IC50 against MARK4
[4] = Table S3, read-out: IC50, (µM), for MARK4 Inhibition

SMILES | Kd (recombinant MARK4 [1]) [µM] | melting point [°C] | IC50 (recombinant MARK4 [2]; [3]) [µM] | IC50 (recombinant MARK4 [2]; [4]) [µM] | IC50 (HepG2 cells) [µM] | IC50 (MCF-7 cells) [µM] | MARK4 inhibition, comparison in words (recombinant MARK4 [2]; ATPase inhibition) | IC50 (HEK293 cells) [µM] | IC50 (MARK2) [µM]
O=C(Cn1c2ccccc2c(=O)c2ccccc21)Oc1ccccc1F [Compound 30195] | – | – | – | – | – | – | – | – | < 10
N#Cc1ccc(NC(=O)Cn2c3ccccc3c(=O)c3ccccc32)cc1 [Compound 30197] | – | – | – | – | – | – | – | – | < 10
COc1ccc2c(c1)c(=O)c1ccccc1n2CC(=O)Nc1cccc(C(F)(F)F)c1 [Compound 30019] | – | – | – | – | – | – | – | – | < 10
CCOC(=O)c1cnc(NC(=O)Cn2c3ccccc3c(=O)c3ccccc32)s1 [Compound 30199] | – | – | – | – | – | – | – | – | < 10

Further lines, with some results ahead:

Kd (recombinant MARK4 [1]) [µM] | melting point [°C] | IC50 (recombinant MARK4 [2]; [3]) [µM] | IC50 (recombinant MARK4 [2]; [4]) [µM] | IC50 (HepG2 cells) [µM] | IC50 (MCF-7 cells) [µM] | MARK4 inhibition, comparison in words (recombinant MARK4 [2]; ATPase inhibition) | SMILES | IC50 (HEK293 cells) [µM] | IC50 (MARK2) [µM]
158 | 282 to 286 | > 20 | > 20 | 21.2 | 14.3 | – | COc1ccc(NC(=O)Cn2c3ccccc3c(=O)c3cc(C)ccc32)cc1 [Compound 7g, N-(4-methoxyphenyl)-2-(2-methyl-9-oxoacridin-10(9H)-yl)acetamide] | > 200 | –
501 | 306 to 309 | > 20 | – | 24.4 | 16.3 | – | CC(=O)c1ccc(NC(=O)Cn2c3ccccc3c(=O)c3cc(C)ccc32)cc1 [Compound 7j, N-(4-acetylphenyl)-2-(2-methyl-9-oxoacridin-10(9H)-yl)acetamide] | > 200 | –
1580 | – | > 20 | – | 25.1 | 14.1 | – | COC(=O)c1ccc(NC(=O)Cn2c3ccccc3c(=O)c3cc(C)ccc32)cc1 [Compound 7i, Methyl 4-(2-(2-methyl-9-oxoacridin-10(9H)-yl)acetamido)benzoate] | > 200 | –
501 | – | – | > 20 | 24.3 | 12.3 | – | Cc1ccc2c(c1)c(=O)c1ccccc1n2CC(=O)N1CCOCC1 [Compound 7a, 2-Methyl-10-(2-morpholino-2-oxoethyl)acridin-9(10H)-one] | > 200 | –
1580 | 290 to 293 | – | > 20 | 23.8 | 13.8 | less potent than 7b | Cc1ccc2c(c1)c(=O)c1ccccc1n2CC(=O)Nc1ccccc1 [Compound 7e, 2-(2-Methyl-9-oxoacridin-10(9H)-yl)-N-phenylacetamide] | > 200 | –
501 | 131 to 141 | – | > 20 | 19.4 | 11.9 | much weaker inhibitor | Cc1ccc2c(c1)c(=O)c1ccccc1n2CC(=O)N(C)Cc1ccccc1 [Compound 7c, N-benzyl-N-methyl-2-(2-methyl-9-oxoacridin-10(9 H)-yl)acetamide] | > 200 | –
